Assay results as given in patent US11072611B2, “Compounds and pharmaceutical compositions thereof for the treatment of inflammatory disorders” (Galapagos NV, priority 2013, dated 2021).

Experiments:
[1] = tested on: tobacco smoke induced recruitment of inflammatory cells to the lungs; test: Tobacco smoke (TS) model, lungs inflammatory cells recruitment; assay type: in vivo, female C57BL/6J mice; conditions: TS-exposed mice
Experimental: The aim of this experiment is to evaluate the efficacy and potency of a test compound administered p.o., once or twice daily on days 6 to 11, vs reference compounds, on pulmonary inflammation induced by 11 days of TS-exposure in female C57BL/6J mice, by assessing the effect of a test compound on the tobacco smoke induced recruitment of inflammatory cells to the lungs.
The test compounds are formulated in PEG200/0.5% methylcellulose (25/75, v/v) and are given at a dose volume of 10 mL/kg. Roflumilast and Dexamethasone are included as positive […] control, respectively. Each treatment group consists of 10 mice.
A first group of mice is subjected to daily TS-exposure for 5 consecutive days and sacrificed on the day 6, 24 h after the final TS-exposure.
A second group is exposed to air for 5 consecutive days (sham exposure) and sacrificed on the day 6, 24 h after the final air-exposure.
Compound and reference-treated groups are subjected to daily TS-exposure for 11 consecutive days and sacrificed on the day 12, 24 h after the final TS-exposure. Mice are dosed p.o. on days 6 to 11, twice daily, 1 h prior to and 6 h after each TS-exposure, with either vehicle, or the test compound at 3, 5, 10 or 30 mg/kg. Another group is dosed p.o. on days 6 to 11, once daily, 1 h prior to each TS-exposure, with either vehicle, or the test compound at 10 mg/kg.
An additional group is dosed p.o., once daily, on days 6 to 11, with roflumilast at 5 mg/kg, 1 h prior to each TS-exposure. Dexamethasone is dosed p.o., twice daily, on days 6 to 11, at 0.3 mg/kg, 1 h prior to and 6 h after each TS-exposure.
For each mouse, a BAL is performed using 0.4 mL of PBS. The lavage fluid is centrifuged, the supernatant removed and the resulting cell pellet re-suspended for total cell counts and cytospin slide preparation. […]
The lungs are dissected out and the left lobes are removed, snap-frozen and stored at −80° C. […] Cell data are presented as individual data points for each animal and the mean value calculated for each group. […]
Percentage inhibitions for the cell data are calculated using the formula below: […]

LPA 18:2 [2] = test: Rat whole blood (plasma) LPA assay; assay type: biochemical; conditions: 2 h at 37° C., LPA 18:2 by LC-MS/MS
Experimental: (§1) Whole blood is collected from rats or mouse by exsanguinations on sodium heparin tube, then after centrifugation at 3000 rpm for 15 min at 4° C., plasma is stored at −80° C. Compounds are diluted in DMSO in concentration dependent manner then 0.5 μL are dispensed into 96-well plate placed in ice. Plasma is defrosted on ice then 49.5 μL of plasma are added into the well containing 0.5 μL of compound (1% DMSO final). Plates are covered with a lid in polypropylene and incubated at +37° C., 5% CO2, for 2 h under gentle shaking (except controls which are stored at −20° C.).
(§2) At the end of the incubation, controls are defrosted in ice and transferred in the incubated plates for LC-MS/MS analysis with a non GLP-validated method. For the analysis, plasma proteins from a 10 μL incubated plates are precipitated with an excess of methanol containing the internal standard, LPA 17:0. After centrifugation, the corresponding supernatant is injected on a C18 column. Analytes are eluted out of the column under isocratic conditions. An API5500 QTRAP mass spectrometer (ABSciex™) is used for the detection of LPA 18:2. No calibration curve is prepared for LPA 18:2, however relative quantities are evaluated based on the peak area.

LPA 18:2 [3] = test: Human whole blood (plasma) LPA assay; assay type: biochemical; conditions: 2 h at 37° C., LPA 18:2 by LC-MS/MS
Experimental: as §1, with “Blood is” for “Whole blood is”, “from healthy volunteers who gave informed consent into” for “from rats or mouse by exsanguinations on”, “heparin tubes by venipuncture,” for “heparin tube,”, “then gently inverted several times to prevent clotting. Tubes are centrifuged” for “then after centrifugation”, “4° C. then” for “4° C.,”
as §2

SMILES: CCc1nc2c(C)cc(N3CCN(CC(=O)N4CC(O)C4)CC3)cn2c1N(C)c1nc(-c2ccc(F)cc2)c(C#N)s1 [Compound 2, 2-((2-ethyl-6-(4-(2-(3-hydroxyazetidin-1-yl)-2-oxoethyl)piperazin-1-yl)-8-methylimidazo[1,2-a]pyridin-3-yl)(methyl)amino)-4-(4-fluorophenyl)thiazole-5-carbonitrile]
- number of cells recovered in the BALF (macrophage cells, epithelial cells, neutrophils) ([1]; 3 mg/kg twice daily p.o.): significantly inhibited
- number of cells recovered in the BALF (macrophage cells, epithelial cells, neutrophils) ([1]; 10 mg/kg twice daily p.o.): significantly inhibited

SMILES: CCc1nc2c(F)cc(N3CCN(CC(=O)N4CC(O)C4)CC3)cn2c1N(C)c1nc(-c2ccc(F)cc2)c(C#N)s1 [Compound 12, 2-((2-ethyl-8-fluoro-6-(4-(2-(3-hydroxyazetidin-1-yl)-2-oxoethyl)piperazin-1-yl)imidazo[1,2-a]pyridin-3-yl)(methyl)amino)-4-(4-fluorophenyl)thiazole-5-carbonitrile]
- IC50 (LPA 18:2 [2]): 0.01 to 100 nM
- number of cells recovered in the BALF (macrophage cells, epithelial cells, neutrophils) ([1]; 10 mg/kg twice daily p.o.): significantly inhibited

SMILES: CCc1nc2ccc(C3CCN(S(C)(=O)=O)CC3)cn2c1N(C)c1nc(-c2ccc(F)cc2)cs1 [Compound 80, N-(2-ethyl-6-(1-(methylsulfonyl)piperidin-4-yl)imidazo[1,2-a]pyridin-3-yl)-4-(4-fluorophenyl)-N-methylthiazol-2-amine]
- IC50 (LPA 18:2 [3]): > 1 µM

SMILES: CCc1nc2ccc(C3CCN(CC(=O)N4CC(O)C4)CC3)cn2c1N(C)c1nc(-c2ccc(F)cc2)cs1 [Compound 110, 2-(4-(2-ethyl-3-((4-(4-fluorophenyl)thiazol-2-yl)(methyl)amino)imidazo[1,2-a]pyridin-6-yl)piperidin-1-yl)-1-(3-hydroxyazetidin-1-yl)ethanone]
- IC50 (LPA 18:2 [2]): > 1000 nM
- IC50 (LPA 18:2 [3]): > 1 µM

SMILES: CCc1nc2ccc(N3CCN(Cc4ncc[nH]4)CC3)cn2c1N(C)c1nc(-c2ccc(F)cc2)cs1 [Compound 226, N-(6-(4-((1H-imidazol-2-yl)methyl)piperazin-1-yl)-2-ethylimidazo[1,2-a]pyridin-3-yl)-4-(4-fluorophenyl)-N-methylthiazol-2-amine]
- IC50 (LPA 18:2 [2]): > 1000 nM
